Assay results: ChEMBL document CHEMBL3734721 (J Med Chem, 2015)
pEC50, pIC50: −log10 of the molar value.

Assays:
[1] = target: 5-hydroxytryptamine receptor 2B (Homo sapiens, UniProt P41595); test: Agonist activity at human 5-HT2B receptor expressed in CHO-K1 cells assessed as calcium level by FDSS assay; format: functional, cell-based
[2] = Intrinsic clearance in human liver microsomes at 1 uM by HPLC/MS/MS analysis; format: ADME; conditions: read-out: CLH
[3] = Chemical stability of compound in buffer at pH 7.4 assessed as compound remaining at 10 mg/ml after 1 day; format: physicochemical; conditions: read-out: Stability
[4] = target: T1, Alpha-2A adrenergic receptor (Homo sapiens, UniProt P08913); test: Agonist activity at human wild-type alpha 2A receptor expressed in CHO-K1 cells assessed as cAMP level by HTRF assay; format: functional, cell-based
T1 sequence (P08913 whole entry): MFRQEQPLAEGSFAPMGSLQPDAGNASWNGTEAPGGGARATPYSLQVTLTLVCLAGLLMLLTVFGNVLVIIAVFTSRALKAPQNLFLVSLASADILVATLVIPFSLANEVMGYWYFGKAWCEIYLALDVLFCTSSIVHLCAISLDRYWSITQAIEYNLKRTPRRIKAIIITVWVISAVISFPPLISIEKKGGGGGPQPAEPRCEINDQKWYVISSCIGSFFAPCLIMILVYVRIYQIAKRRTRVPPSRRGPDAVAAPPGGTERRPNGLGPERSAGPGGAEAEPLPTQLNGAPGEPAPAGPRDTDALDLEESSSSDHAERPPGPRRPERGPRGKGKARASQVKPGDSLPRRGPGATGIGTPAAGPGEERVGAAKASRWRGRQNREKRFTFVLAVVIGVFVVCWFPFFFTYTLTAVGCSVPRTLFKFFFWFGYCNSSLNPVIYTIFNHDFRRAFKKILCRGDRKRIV

Cytochrome P450 2C19 = Cytochrome P450 2C19 (Homo sapiens, UniProt P33261); test: Inhibition of human CYP2C19 by LC-MS analysis; format: ADME
[5] = target: T2, Cholecystokinin receptor type A (Homo sapiens, UniProt P32238); test: Agonist activity at human wild-type CCKA receptor expressed in CHO-K1 cells assessed as calcium level by FDSS assay; format: functional, cell-based
T2 sequence (P32238 whole entry): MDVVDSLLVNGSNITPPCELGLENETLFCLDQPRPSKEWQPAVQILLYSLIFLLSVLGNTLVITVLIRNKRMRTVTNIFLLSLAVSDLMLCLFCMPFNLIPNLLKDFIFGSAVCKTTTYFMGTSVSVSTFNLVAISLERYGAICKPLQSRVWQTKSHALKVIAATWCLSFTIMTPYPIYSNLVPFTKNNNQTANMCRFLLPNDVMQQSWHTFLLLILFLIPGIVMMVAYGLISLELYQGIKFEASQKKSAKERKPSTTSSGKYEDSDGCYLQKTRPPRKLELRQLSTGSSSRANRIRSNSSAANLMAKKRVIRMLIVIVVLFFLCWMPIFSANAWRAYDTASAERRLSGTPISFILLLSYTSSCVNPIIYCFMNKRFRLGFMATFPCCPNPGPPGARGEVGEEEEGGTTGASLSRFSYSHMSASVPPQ

[6] = target: T3, Muscarinic acetylcholine receptor M2 (Homo sapiens, UniProt P08172); test: Agonist activity at human wild-type M2 receptor expressed in CHO-K1 cells assessed as cAMP level by HTRF assay; format: functional, cell-based
T3 sequence (P08172 whole entry): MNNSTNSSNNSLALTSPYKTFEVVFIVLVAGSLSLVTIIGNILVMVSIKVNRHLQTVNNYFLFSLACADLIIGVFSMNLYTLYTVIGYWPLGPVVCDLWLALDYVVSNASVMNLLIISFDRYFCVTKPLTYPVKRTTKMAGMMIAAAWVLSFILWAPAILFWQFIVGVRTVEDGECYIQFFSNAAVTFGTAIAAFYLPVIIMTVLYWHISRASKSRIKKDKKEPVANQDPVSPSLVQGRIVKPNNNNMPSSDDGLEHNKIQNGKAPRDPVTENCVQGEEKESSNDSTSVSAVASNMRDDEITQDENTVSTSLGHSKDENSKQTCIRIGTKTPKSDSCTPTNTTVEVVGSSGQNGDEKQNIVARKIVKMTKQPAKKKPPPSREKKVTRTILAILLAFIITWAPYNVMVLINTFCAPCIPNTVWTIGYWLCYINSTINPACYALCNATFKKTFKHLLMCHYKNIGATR

[7] = target: T4, Alpha-1A adrenergic receptor (Homo sapiens, UniProt P35348); test: Antagonist activity at human wild-type alpha 1A receptor expressed in CHO cells assessed as EP-induced calcium by HTRF assay; format: functional, cell-based
T4 sequence (P35348 whole entry): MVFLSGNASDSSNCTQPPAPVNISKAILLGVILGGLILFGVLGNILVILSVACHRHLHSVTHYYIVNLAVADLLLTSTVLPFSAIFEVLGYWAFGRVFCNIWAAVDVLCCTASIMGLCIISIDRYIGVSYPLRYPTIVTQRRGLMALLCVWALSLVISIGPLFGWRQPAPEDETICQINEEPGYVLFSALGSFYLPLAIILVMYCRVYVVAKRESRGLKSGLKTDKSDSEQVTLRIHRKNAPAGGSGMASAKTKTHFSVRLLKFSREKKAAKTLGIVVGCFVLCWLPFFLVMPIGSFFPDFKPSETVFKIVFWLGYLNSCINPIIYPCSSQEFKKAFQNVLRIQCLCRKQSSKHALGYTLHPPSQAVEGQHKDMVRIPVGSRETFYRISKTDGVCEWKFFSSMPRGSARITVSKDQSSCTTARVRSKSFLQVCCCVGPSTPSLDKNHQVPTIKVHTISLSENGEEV

Adenosine receptor A2a = Adenosine receptor A2a (Homo sapiens, UniProt P29274); test: Agonist activity at human wild-type A2A receptor expressed in CHO-K1 cells assessed as cAMP level by HTRF assay; format: functional, cell-based
[8] = target: 5-hydroxytryptamine receptor 2A (Homo sapiens, UniProt P28223); test: Agonist activity at human 5-HT2A receptor expressed in CHO-K1 cells assessed as calcium level by FDSS assay; format: functional, cell-based
Adenosine receptor A3 = target: T5, Adenosine receptor A3 (Homo sapiens, UniProt P0DMS8); test: Agonist activity at human wild-type A3 receptor expressed in CHO-K1 cells assessed as cAMP level by HTRF assay; format: functional, cell-based
T5 sequence (P0DMS8 whole entry): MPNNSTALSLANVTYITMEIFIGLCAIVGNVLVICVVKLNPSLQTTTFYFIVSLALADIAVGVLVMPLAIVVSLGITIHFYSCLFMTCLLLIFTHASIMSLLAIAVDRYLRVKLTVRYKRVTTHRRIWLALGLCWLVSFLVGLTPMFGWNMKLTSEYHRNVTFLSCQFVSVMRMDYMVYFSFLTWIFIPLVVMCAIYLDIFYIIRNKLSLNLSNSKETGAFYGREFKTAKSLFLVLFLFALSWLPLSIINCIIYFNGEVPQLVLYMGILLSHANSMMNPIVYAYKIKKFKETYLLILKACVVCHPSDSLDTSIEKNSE

Chain of 5-hydroxytryptamine receptor 2B (P41595 whole entry): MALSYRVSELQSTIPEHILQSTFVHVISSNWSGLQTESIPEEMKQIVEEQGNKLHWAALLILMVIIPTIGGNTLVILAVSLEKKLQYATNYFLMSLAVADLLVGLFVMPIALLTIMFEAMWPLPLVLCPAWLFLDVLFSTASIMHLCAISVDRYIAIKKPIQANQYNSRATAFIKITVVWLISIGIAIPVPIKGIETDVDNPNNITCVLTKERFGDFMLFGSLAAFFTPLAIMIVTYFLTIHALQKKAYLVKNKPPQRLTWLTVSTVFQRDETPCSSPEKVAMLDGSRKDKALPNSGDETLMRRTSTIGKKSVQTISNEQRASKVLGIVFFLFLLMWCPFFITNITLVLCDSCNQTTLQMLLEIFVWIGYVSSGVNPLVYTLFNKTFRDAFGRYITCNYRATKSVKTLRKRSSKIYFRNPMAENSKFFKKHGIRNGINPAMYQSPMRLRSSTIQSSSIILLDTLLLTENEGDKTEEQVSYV
Chain of Adenosine receptor A2a (P29274 whole entry): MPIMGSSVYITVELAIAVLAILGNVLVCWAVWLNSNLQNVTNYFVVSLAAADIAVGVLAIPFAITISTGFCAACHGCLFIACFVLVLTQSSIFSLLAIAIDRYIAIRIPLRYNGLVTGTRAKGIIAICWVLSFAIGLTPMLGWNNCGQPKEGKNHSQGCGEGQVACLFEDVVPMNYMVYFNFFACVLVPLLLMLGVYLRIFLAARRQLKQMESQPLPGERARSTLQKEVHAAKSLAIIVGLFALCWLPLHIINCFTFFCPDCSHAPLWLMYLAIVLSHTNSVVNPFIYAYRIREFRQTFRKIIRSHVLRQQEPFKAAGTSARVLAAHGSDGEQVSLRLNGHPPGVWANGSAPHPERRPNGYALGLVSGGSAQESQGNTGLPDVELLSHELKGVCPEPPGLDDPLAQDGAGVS
Chain of Cytochrome P450 2C19 (P33261 whole entry): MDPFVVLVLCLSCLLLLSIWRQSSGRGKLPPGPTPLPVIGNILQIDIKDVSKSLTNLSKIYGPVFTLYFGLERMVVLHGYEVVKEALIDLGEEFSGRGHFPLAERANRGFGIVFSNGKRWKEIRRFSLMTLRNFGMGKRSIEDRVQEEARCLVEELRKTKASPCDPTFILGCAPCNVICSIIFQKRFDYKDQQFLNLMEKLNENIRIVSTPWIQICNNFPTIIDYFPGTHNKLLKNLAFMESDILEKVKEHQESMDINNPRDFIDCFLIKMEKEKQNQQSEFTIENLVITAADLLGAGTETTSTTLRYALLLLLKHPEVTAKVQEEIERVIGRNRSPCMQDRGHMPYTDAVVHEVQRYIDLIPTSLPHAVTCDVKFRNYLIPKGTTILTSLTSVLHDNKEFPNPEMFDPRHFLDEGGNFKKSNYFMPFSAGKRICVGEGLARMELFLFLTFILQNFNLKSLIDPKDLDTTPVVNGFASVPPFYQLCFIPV
Chain of 5-hydroxytryptamine receptor 2A (P28223 whole entry): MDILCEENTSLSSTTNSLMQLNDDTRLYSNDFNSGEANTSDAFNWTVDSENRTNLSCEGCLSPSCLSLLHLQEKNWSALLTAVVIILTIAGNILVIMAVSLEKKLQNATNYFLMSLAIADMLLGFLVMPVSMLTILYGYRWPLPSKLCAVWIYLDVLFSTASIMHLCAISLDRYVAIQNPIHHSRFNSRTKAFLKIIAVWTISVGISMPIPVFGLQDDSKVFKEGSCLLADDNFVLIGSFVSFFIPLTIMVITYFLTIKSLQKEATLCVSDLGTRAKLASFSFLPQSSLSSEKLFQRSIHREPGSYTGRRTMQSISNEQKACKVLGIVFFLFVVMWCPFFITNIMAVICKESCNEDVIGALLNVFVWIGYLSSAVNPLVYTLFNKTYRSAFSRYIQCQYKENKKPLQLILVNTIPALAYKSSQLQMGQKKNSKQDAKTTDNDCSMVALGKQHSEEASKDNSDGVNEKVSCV

| pEC50 [1] | microsomal CLint at 1 µM [2] [µL/min/mg] | remaining at 24 h, 10 mg/ml [3] [%] | pEC50 [4] | pIC50 (Cytochrome P450 2C19) | pEC50 [5] | pEC50 [6] | pIC50 [7] | pEC50 (Adenosine receptor A2a) | pEC50 [8] | pEC50 (Adenosine receptor A3) | SMILES |
| --- | --- | --- | --- | --- | --- | --- | --- | --- | --- | --- | --- |
| < 5.30 | 11 | 96 | < 5.30 | < 5.00 | < 5.30 | < 5.30 | < 5.30 | < 5.30 | < 5.30 | < 5.30 | CB1C=Cc2c(cccc2OCC(O)CN(C)C)N1 (configuration not stated) |
| < 5.30 | 8.7 | 93 | < 5.30 | < 5.00 | < 5.30 | < 5.30 | < 5.30 | < 5.30 | < 5.30 | < 5.30 | CB1C=Cc2cccc(OCC(O)CNC(C)C)c2N1 (configuration not stated) |
